Patent US20070218509A1, “Murine Living Tissue Model & UsesTthereof” (priority 2003, published 2007)

Tests used:
[1] = tested on: T52 Hufos invasive tumour model; test: T52 Hufos invasive tumour three-dimensional model, area of cell cover; assay type: cell-based, mouse; details: 10^−7M RA, 10 day culture period (FIG. 7)
Excerpt: Hufos invasive tumour model over a 10 day culture period. In summary the in vitro models were developed using contracted collagen gels which supported a layer of mouse tumour cells or corresponding “normal” epithelial cells. The collagen gel was comprised of type I collagen, isolated from rat tail tendon, contracted using primary mouse fibroblasts, which were isolated from the dermis of newborn (or embryonic) mice. The collagen gels contracted to a size approximately 1.5 cm in diameter and were seeded with a single cell suspension of mouse tumour or normal epithelial cells. The models were initially maintained as submerged cultures, which allowed the cells to adhere to the collagen gel and grow. The models may thereafter be raised to the air-liquid interface (semi-submerged culture) to promote cell differentiation and formation of tissue. […] Test agents can be added to the model system at different stages of tumour development. The models are directly imaged as whole mounts by fluorescent labelling of cells either with vital dyes or genetic markers or after fixation and staining. In more detail, the collagen gel, described below, which supports the layer of epithelial cells (BalbMK (Weissman and Aaronson 1985), SP-1 (Strickland et al. 1988) or [MUT] Hufos (Greenhalgh and Yuspa 1988) in the prototype models), was contracted using dermal fibroblasts isolated from newborn mouse skin. […]

[2] = tested on: SP-1 papilloma model; test: SP-1 papilloma three-dimensional model, area of cell cover (propidium iodide stained whole mounts); assay type: cell-based, mouse; details: SP-1 model
Method: In summary the in vitro models were developed using contracted collagen gels which supported a layer of mouse tumour cells or corresponding “normal” epithelial cells. The collagen gel was comprised of type I collagen, isolated from rat tail tendon, contracted using primary mouse fibroblasts, which were isolated from the dermis of newborn (or embryonic) mice. The collagen gels contracted to a size approximately 1.5 cm in diameter and were seeded with a single cell suspension of mouse tumour or normal epithelial cells. The models were initially maintained as submerged cultures, which allowed the cells to adhere to the collagen gel and grow. The models may thereafter be raised to the air-liquid interface (semi-submerged culture) to promote cell differentiation and formation of tissue. […] Test agents can be added to the model system at different stages of tumour development. The models are directly imaged as whole mounts by fluorescent labelling of cells either with vital dyes or genetic markers or after fixation and staining.
In more detail, the collagen gel, described below, which supports the layer of epithelial cells (BalbMK (Weissman and Aaronson 1985), SP-1 (Strickland et al. 1988) or T52 Hufos (Greenhalgh and Yuspa 1988) in the prototype models), was contracted using dermal fibroblasts isolated from newborn mouse skin. The epidermis and dermis were separated from each other following an overnight digestion with trypsin at 4° C. The dermal tissue washed in sterile PBS, dissected-into very small pieces, suspended in 3-5 ml of MEM culture media and the slurry seeded into a 75 cm^2 plastic culture flask. This tissue was cultured without disturbance until the tissue pieces had adhered to the plastic flask. Fresh MEM (Minimum Essential Medium) supplemented with 10% foetal calf serum, 1% L-glutamine, 100 U/ml penicillin and 100 μg/ml streptomycin was added to the flask at this time. Fibroblast cell outgrowth from the dermal tissue explants was observed after several days. The excess tissue was removed and the fibroblast cells cultured to confluence. […]

[3] = tested on: SP-1 cells; test: Growth curves of SP-1 cells in monolayer culture; assay type: cell-based; details: Mus musculus, 240 h; SP-1 monolayer culture, 10 days in culture, 10^−7M RA; read-out: inhibition of the log phase of growth
[4] = tested on: T52 Hufos invasive tumour model; test: T52 Hufos invasive tumour model, cell killing (H & E stained paraffin sections); assay type: cell-based, mouse
Method: (§1) FIG. 10: Treatment of models with the anti-tumour drug cisplatin. H & E stained paraffin sections (×400 magnification) of SP-1 “papilloma” model (A, C and E) and T52-Hufos “invasive tumour” model (B, D and F). Shown are (A and B) untreated models (without cisplatin), (C and D) models treated with 50 μM cisplatin and (E and F) models treated with 500 μM cisplatin.
(§2) Cell models were harvested at appropriate time intervals and fixed overnight, at room temperature in a solution of buffered formalin. A small piece of the model was removed and embedded in paraffin wax. Sections were cut and mounted onto glass slides and stained with haematoxylin and eosin (H & E stain). The remainder of the model washed in PBS (phosphate buffered saline), permeabilised with Triton X-100 and stained with propidium iodide (PI). The washed models were stored thereafter in the dark at 4° C. and maintained their fluorescence for several weeks. Whole mounts of the PI stained models were analysed using fluorescent microscopy through coverslips applied directly to the surface of the tissue.

[5] = tested on: SP-1 papilloma model; test: SP-1 papilloma model, cell killing (H & E stained paraffin sections); assay type: cell-based, mouse; details: SP-1 model
Method: as §1, §2

[6] = higher cisplatin concentration (500 μM, FIG. 10)
[7] = lower cisplatin concentration (50 μM, FIG. 10)

CC1=C(/C=C/C(C)=C/C=C/C(C)=C/C(=O)O)C(C)(C)CCC1 [RA, All-trans-Retinoic acid]
effect on area of cell cover [1]: no effect | effect on area of cell cover ([2]; 10^−6M RA (highest concentration studied), day 8 and day 10 (FIG. 6)): marked effect | effect on area of cell cover ([2]; 10^−7M RA, vs untreated controls, time course to day 12 (FIG. 5)): modest effect with less cell cover than the corresponding untreated controls | degree of growth inhibition, concentration dependence ([2]; RA at 10^−6M, 10^−7M and 10^−8M (FIG. 6)): concentration dependent | inhibition at 0.1 µM [3]: 46%

N.N.[Cl][Pt][Cl] [cisplatin]
cell killing [4, 6]: extensive cell death | cell killing [4, 7]: evidence of cell killing | cell killing [5, 6]: extensive cell death | cell killing [5, 7]: evidence of cell killing
